Measured values: patent US20070060550A1, “Methods of determining compounds useful in the treatment of bipolar disorder and methods of treating such disorders” (priority 2005, published 2007)

Key:
[1] = system: sensory neuron growth cones; details: Williams et al., 2002; cited from earlier work
prolyl oligopeptidase = biological target: T1, prolyl oligopeptidase (Homo sapiens, UniProt P48147); test: prolyl oligopeptidase fluorogenic enzyme assay (Z-Gly-Pro-aminomethyl coumarin); assay type: biochemical; details: for effect on prolyl oligopeptidase proteolytic activity: FIG. 9
T1 construct: poly-histidine; made in house; host or cells: E. coli
T1 sequence (P48147 1-710): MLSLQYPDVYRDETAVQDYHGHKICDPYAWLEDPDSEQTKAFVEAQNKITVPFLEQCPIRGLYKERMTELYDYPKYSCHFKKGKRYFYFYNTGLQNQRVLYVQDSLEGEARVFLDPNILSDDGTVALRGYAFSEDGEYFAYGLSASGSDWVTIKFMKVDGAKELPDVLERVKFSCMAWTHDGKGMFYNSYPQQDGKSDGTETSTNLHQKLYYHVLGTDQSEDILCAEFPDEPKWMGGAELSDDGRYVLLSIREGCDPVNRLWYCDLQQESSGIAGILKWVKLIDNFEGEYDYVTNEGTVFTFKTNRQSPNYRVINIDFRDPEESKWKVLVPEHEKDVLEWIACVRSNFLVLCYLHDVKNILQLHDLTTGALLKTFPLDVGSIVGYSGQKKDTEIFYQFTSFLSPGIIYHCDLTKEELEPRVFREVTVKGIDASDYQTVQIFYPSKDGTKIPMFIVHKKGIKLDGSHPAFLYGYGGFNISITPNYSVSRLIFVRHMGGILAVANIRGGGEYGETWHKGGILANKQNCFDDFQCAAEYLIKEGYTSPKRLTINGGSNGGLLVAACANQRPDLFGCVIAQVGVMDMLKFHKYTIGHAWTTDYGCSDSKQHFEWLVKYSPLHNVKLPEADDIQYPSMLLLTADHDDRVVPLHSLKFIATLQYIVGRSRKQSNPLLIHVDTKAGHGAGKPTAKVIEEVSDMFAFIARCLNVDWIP
Description: For inhibitors of the enzymatic activity on the enzyme prolyl oligopeptidase, the relevant references for several assays can be found in Cheng et al., MCN 2005. Common assays use a peptide-based substrate which, when cleaved from a prorlyl bond, releases a fluorogenic signal that can be quantitated by spectrocopy.
Conveniently, the effect of the candidate compounds that inhibit enzyme activity can be assessed using a labeled substrate that is cleaved or otherwise modified by prolyl oligopeptidase to produce a detachable change such as release of a label. Thus, it is possible to screen candidate inhibitors by measuring the change in the signal from the label caused by the action of prolyl oligopeptidase in the presence and absence of a candidate inhibitor compound. A preferred substrate may be one in which a fluorescent label is employed, such as Z-Gly-Pro-aminomethyl coumarin.
Conveniently, prolyl oligopeptidase enzyme assays can be carried out using a standard fluorogenic assay with the synthetic substrate Z-Gly-Pro-aminomethyl coumarin obtained from Bachem, Switzerland. Recominant prolyl oligopeptidase was produced in E. coli transfected with cDNA encoding the human form of prolyl oligopeptidase cloned into a bacterial expression vector containing either an N-or a C-terminal poly-histidine tag in order to purify the expressed protein. cDNA encoding human […] can be obtained from the MRC's HGMP Resource Center, Hinxton Hall Cambridge, UK (Clone Image No. 3614248).

cortical neurons = test: 3H-CDP-DAG accumulation assay of PIns recycling in carbachol-stimulated neurons; assay type: cell-based
Description: PIns recycling that is limited by the supply of inositol can be assessed by loading cells with ^3H-cytidine, stimulating the cells with carbachol in the presence or absence of lithium, precipitating protein with trichloracetic acid, and then determining how much ^3H accumulates as ^3H-CDP-DAG in the lipid membrane compartment, which can be extracted with chloroform. […] Compounds specifically for this purpose may be designed by a number of computer programs suitable for this purpose.
A suitable screen therefore will determine compounds that can reverse the effect of lithium as measured by the accumulation of CDP-DAG in carbachol-stimulated neurons. Another means of screening for drugs that reverse the effect of lithium on PIns recycling is to screen for drugs that alter the supply of intracellular inositol in neurons by labelling them with titriated inositol and analysing the patterns of cytosolic inositol phosphates and membrane phoshoinositides: the novelty of this approach is to use cortical neurons rather than non-neural cells or neural cell lines. […] Additional known tricyclics such as protriptyline that could also be tested. […] The same assays can be used to test for other compounds that stimulate PIns cycling including other inhibitors of prolyl oligopeptidase activity.
The accumulation of tritiated CDP-DAG in the membrane fraction after loading cells with ^3H-cytidine or the incorporation of ^32P orthophosphate into membrane phospholipids can be used to assess changes in synthetic patterns in the presence or absence of compounds needing to be tested.

[2] = system: sensory neuron growth cones; test: growth cone collapse / morphology in cultured neurons; assay type: cell-based
Description: I used the growth cones as a model system for assessing changes in intracellular signalling events in response to drugs: The growth cones have some properties in common with presynaptic nerve terminals in the brain. I argued that, if the signalling changes we see in the growth cones of cultured neurons also occur in mature brain synapses in mood-related circuits, then these changes in neuronal signalling in response to the drugs would very likely affect synaptic transmission and thus also affect mood.
Another method of screening for suitable drugs for the prophylactic treatment of bipolar disorder is to look for compounds that have dual effects on the morphology of growth cones. Suitable compounds are those that can inhibit the collapse of growth cones in a way that is reversed by increasing extracellular inositol to 3 mM as well as reverse the effects of 20 μM carbamazepine or 3 mM valproic acid on the collapse of growth cones. Lamotrigine has such properties.

HMIT = details: compared with SMIT; cited from earlier work
[3] = in vivo; cited from earlier work

For `NC(=O)N1c2ccccc2C=Cc2ccccc21` [carbamazepine], the “effect on collapse of sensory neuron growth cones and growth cone area” value [1] is given as “inhibit the collapse of sensory neuron growth cones and increase growth cone area” and the “effect on prolyl oligopeptidase proteolytic activity” value (prolyl oligopeptidase) is given as “Only valproic acid inhibited the enzyme”.
In the case of `CNCCCN1c2ccccc2CCc2ccccc21` [desipramine], the “concentrations at which the antidepressants act on the PIns cycle” value (cortical neurons) is reported as “micromolar” and the “effect on prolyl oligopeptidase proteolytic activity” value (prolyl oligopeptidase) is reported as “Only valproic acid inhibited the enzyme”.
In the case of `CNCCC(Oc1ccc(C(F)(F)F)cc1)c1ccccc1` (stereo not drawn) [fluoxetine], the “concentrations at which the antidepressants act on the PIns cycle” value (cortical neurons) is reported as “micromolar”, the “reversal of the inhibitory effects of mood stabilizers on the PIns cycle” value (cortical neurons; cycle first perturbed with lithium, valproic acid or carbamazepine) is reported as “can reverse the inhibitory effects of lithium, valproic acid and carbamazepine on the PIns cycle” and the “effect on prolyl oligopeptidase proteolytic activity” value (prolyl oligopeptidase) is reported as “Only valproic acid inhibited the enzyme”.
With `Nc1nnc(-c2cccc(Cl)c2Cl)c(N)n1` [lamotrigine] the “reversal of the action of carbamazepine or valproic acid on the growth cones” value ([2]; 20 μM carbamazepine or 3 mM valproic acid) was “can reverse the action of either carbamazepine or valproic acid on the growth cones”, the “effect on collapse of growth cones” value ([2]; compound alone) was “inhibits the collapse of growth cones” and the “reversal of the growth cone effect by inositol” value ([2]; increased extracellular inositol (3 mM)) was “reversed by increasing the extracellular concentration of inositol”.
In the case of `O=C(CCc1ccc(O)cc1)c1c(O)cc(O)cc1O` [phloretin], the “strength of HMIT inhibition” value (HMIT) is listed as “weak inhibitors of HMIT”.
With `CN1c2ccccc2C(NCCCCCCC(=O)O)c2ccc(Cl)cc2S1(=O)=O` (stereo not drawn) [tianeptine] the “effective doses in the 3H-CDP-DAG assay” value (cortical neurons; abolition of lithium-induced accumulation, carbachol-stimulated neurons) was 10^−6-10^−5 M, the “effect on lithium-induced accumulation of 3H-CDP-DAG” value (cortical neurons; carbachol-stimulated neurons, in presence of lithium) was “abolished the lithium-induced accumulation” and the “effect alone in the 3H-CDP-DAG assay” value (cortical neurons; compound alone) was “no effect alone”.
For `CCCC(CCC)C(=O)O` [valproic acid], the “effect on collapse of sensory neuron growth cones and growth cone area” value [1] is listed as “inhibit the collapse of sensory neuron growth cones and increase growth cone area”, the “effect on prolyl oligopeptidase proteolytic activity” value (prolyl oligopeptidase) is listed as “inhibited the enzyme” and the Ki (prolyl oligopeptidase; read-out: Ki for direct inhibition of PO) is listed as about 1000 µM. For the same compound, the therapeutic blood levels [3] was 0.3 to 0.7 mM.
